Like-named read-outs stand apart in the source and are kept apart here.
Tests used:
MAPK13 [1] = target: T1, MAPK13 (Homo sapiens (Human), UniProt O15264); assay: MAPK inhibitor assay: immobilized metal affinity polarization (IMAP) assay with activated MAPK13; format: biochemical; settings: for MAPK13 inhibitory activity (in words): IMAP assay, FIG. 6f
Procedure: MAPK inhibitor assay. The MAPK13 blocking activity of test compounds was determined using an immobilized metal affinity polarization (IMAP) assay containing activated MAPK13, FITC-labeled substrate, and test compound. Full-length 6-His-tagged MAPK13 and constitutively active GST-MKK6 were prepared as described below. Activated MAPK13 was generated in 50 mM Hepes, 10 mM MgCl2 and 1 mM DTT, containing 1 μM MAPK13, 2 μM MKK6 and 50 μM ATP for 1 h at 25° C. MKK6 was removed by incubation with glutathione SEPHAROSE 4B beads (GE Healthcare Biosciences). […] IMAP assays were performed in 96-well non-treated half-area black plates or 384-well black plates (Corning Inc., Corning, N.Y.) in a final reaction volume of 20 μl using the linear phase of the rate kinetics. […] The reaction proceeded for 20 min at 25° C. in 10 mM Tris-HCl, 10 mM MgCl2, 0.1% BSA, 0.05% NaN3, 1 mM DT, pH 7.2 after which 60 μl of tri-valent metal nanoparticles containing IMAP binding reagent (Molecular Devices, Sunnyvale, Calif.) was added for 80 min at 25° C. The IMAP binding reagent was optimized at 1:600 (vol/vol) based on the number of acidic residues in the peptide substrate. Fluorescence polarization was measured with a Biotek Synergy 4 multimode plate reader (Biotek, Winooski, Vt.) with excitation at 485 nm and emission at 528 nm. The IC50 values for each compound were determined from the compound concentration versus fluorescence polarization (mP) plot using nonlinear curve fitting with GraphPad Prism software (Graphpad Software, La Jolla, Calif.).
MAPK purification for biochemical assays and crystallization. Full-length human MAPK13 (1-365) and MAPK13 crystallization construct (1-352) were cloned into pET28a as N-terminal 6-His-tagged constructs. […] A pET28a construct of λ-phosphatase was a gift from Dima Klenchin (University of Wisconsin, Madison, Wis.). All constructs were confirmed by sequencing and transformed into Rosetta2 (DE3) E. coli (EMD Millipore, Billerica, Mass.) and expressed as soluble proteins that were purified using the specific affinity tags followed by gel filtration chromatography. […] The final purified MAPK13 for crystallization was stored in buffer containing 20 mM Hepes pH 7.5, 150 mM NaCl, 10% glycerol, and 1 mM DTT.
In concert with this structural analysis, analogs for MAPK13 inhibitory activity were tested using an immobilized metal affinity polarization (IMAP) assay that detected fluorescence polarization as a function of remaining MAPK13 activity.

MAPK13 [2] = target: T1, MAPK13; assay: MAPK13/small molecule binding assay (bio-layer interferometry, Octet); settings: for t1/2: complex half-life determined using BLI; for slow-off binding kinetics: FIG. 6d,e
Source text: MAPK purification for biochemical assays and crystallization. Full-length human MAPK13 (1-365) and MAPK13 crystallization construct (1-352) were cloned into pET28a as N-terminal 6-His-tagged constructs. A constitutively active mutant MKK6-GST fusion construct (GST-MKK6 Glu) was a gift from Peiqing Sun (Scripps, La Jolla, Calif.). A pET28a construct of λ-phosphatase was a gift from Dima Klenchin (University of Wisconsin, Madison, Wis.). All constructs were confirmed by sequencing and transformed into Rosetta2 (DE3) E. coli (EMD Millipore, Billerica, Mass.) and expressed as soluble proteins that were purified using the specific affinity tags followed by gel filtration chromatography. […] All buffers used during purification (lysis, column, and storage) of MAPK13 required addition of 10% glycerol and 1-5 mM reducing agent (either β-mercaptoethanol or DTT) to prevent precipitation of the recombinant protein. The final purified MAPK13 for crystallization was stored in buffer containing 20 mM Hepes pH 7.5, 150 mM NaCl, 10% glycerol, and 1 mM DTT.
MAPK13/small molecule binding assay. Kinetics of MAPK13 binding to small molecules was assessed using bio-layer interferometry with an Octet (ForteBio, Menlo Park, Calif.). Super-streptavidin-coated biosensors from ForteBio were used to capture biotinylated MAPK13 onto the surface of the sensor. After reaching baseline, sensors were moved to association step containing 2500, 1250, 625, 312.5, or 156.3 nM inhibitor for 300 s and then dissociated for 300 s. Curves were corrected by a double-referencing technique using both biotin-coated pins dipped into the experimental wells and a buffer-only reference. The running buffer consisted of 10 mM Hepes pH 7.5, 150 mM NaCl, 0.05% Tween, and 5% DMSO. Half-lives were calculated from dissociation constants determined from global kinetic analysis.

MUC5AC [3] = assay: IL-13-induced MUC5AC production in primary-culture human tracheal epithelial cells (qPCR, cell-based ELISA); settings: for IL-13-induced MUC5AC production: FIG. 6h
CLCA1 = CLCA1 levels in IL-13-treated hTECs (qPCR); format: cell-based, human; settings: IL-13 50 ng/ml, up to 21 d air-liquid interface
MUC5AC [4] = assay: Doxycycline-induced MUC5AC mRNA and protein in NCI-H292-rtTA-hCLCA1 cells; format: cell-based, human; settings: doxycycline 7.5 μg/ml for 18 h
[5] = lower part of Table 4, IMAP-based biochemical assay, read-out: MAPK13 IC50
[6] = upper part of Table 4, 16-point inhibitor concentration-response curves, unit inferred, read-out: IC50 (IC50 values for MAPK13 inhibition)
[7] = primary-culture human airway epithelial cells

T1 sequence (O15264 whole entry): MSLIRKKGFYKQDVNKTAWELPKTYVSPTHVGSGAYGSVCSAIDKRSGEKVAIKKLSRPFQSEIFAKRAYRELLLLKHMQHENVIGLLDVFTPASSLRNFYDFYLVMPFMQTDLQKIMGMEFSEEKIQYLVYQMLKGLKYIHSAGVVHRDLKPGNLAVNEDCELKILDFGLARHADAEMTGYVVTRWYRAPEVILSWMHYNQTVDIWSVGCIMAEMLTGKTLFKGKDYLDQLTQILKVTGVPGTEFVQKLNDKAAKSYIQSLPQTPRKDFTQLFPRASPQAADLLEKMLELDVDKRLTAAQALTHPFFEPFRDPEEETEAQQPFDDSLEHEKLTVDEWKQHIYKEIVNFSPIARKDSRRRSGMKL

Row | IC50 (MAPK13 [1]; [5]) | t1/2 (MAPK13 [2]) | Structure (SMILES) | MAPK13 inhibitory activity (in words) (MAPK13 [1]) | IC50 (MAPK13 [1]; [6]) | further results
1 |  |  | Cn1c(NC[C@@H](N)Cc2ccccc2)nc(-c2ccncc2)c(-c2ccc3ccccc3c2)c1=O [AMG-548, reference compound] | weak inhibitory activity |  | 
2 | 27.5 nM | 20 min | Cc1ccc(-n2nc(C(C)(C)C)cc2NC(=O)Nc2ncc(CCN3CCOCC3)s2)cc1 [Analog 89, 1-[5-tert-butyl-2-(p-tolyl)pyrazol-3-yl]-3-[5-(2-morpholinoethyl)thiazol-2-yl]urea] |  |  | 
3 | 8650 nM | 3.4 min | Cc1ccc(-n2nc(C(C)(C)C)cc2NC(=O)Nc2ccc3c(c2)CN(C(=O)C2CCOCC2)C3)cc1 [Analog 115, 1-[5-tert-butyl-2-(p-tolyl)pyrazol-3-yl]-3-[2-(tetrahydropyran-4-carbonyl)isoindolin-5-yl]urea] |  |  | Relative Dissociation kinetics (MAPK13 [2]; BLI): slow
4 | 10200 nM | 0.0467 min | Cc1cn(-c2cccc(C(=O)Nc3ccc(Oc4ccncc4)cc3)c2)cn1 [Analog 117, 3-(4-methylimidazol-1-yl)-N-[4-(4-pyridyloxy)phenyl]benzamide] |  | 15800 nM | MAPK13 Inhibition Biochemical Potency (MAPK13 [1]; class symbols +++, ++, +, ~, legend not given): ~; slow-off binding kinetics (MAPK13 [2]): did not
5 |  | 0.02 min | O=C(Nc1ccc(Oc2ccncc2)cc1)c1ccnc(N2CCOCC2)c1 [Analog 124, 2-morpholino-N-[4-(4-pyridyloxy)phenyl]pyridine-4-carboxamide] |  |  | 
6 |  |  | Cc1ccc(-n2nc(C(C)(C)C)cc2NC(=O)Nc2ccc(OCCN3CCOCC3)c3ccccc23)cc1 [BIRB-796, BIRB-796 (Doramapimod)] |  |  | IL-13-induced MUC5AC gene expression (MUC5AC [3]; hTECs, IL-13 50 ng/ml, up to 21 d air-liquid interface): markedly suppressed; corresponding CLCA1 levels / CLCA1 gene expression (CLCA1): without affecting; doxycyline-induced MUC5AC mRNA and protein production (MUC5AC [4]): inhibited
7 |  |  | Cc1ccc(-n2nc(C(C)(C)C)cc2NC(=O)Nc2ccc(Oc3ccncc3)cc2)cc1 [Compound 62] | most potent MAPK13 inhibition | 280 nM | IC50 (MUC5AC [3]; IL-13-induced, primary-culture human airway epithelial cells, read-out: IC50 for blockade of mucus production): < 10 nM; IL-13-induced MUC5AC production (MUC5AC [3]; [7]): markedly suppressed

Row | Structure (SMILES) | IC50 (MAPK13 [1]; [5]) | t1/2 (MAPK13 [2]) | MAPK13 inhibitory activity (in words) (MAPK13 [1]) | IC50 (MAPK13 [1]; [6]) | further results
8 | Cn1nc(C(C)(C)C)cc1NC(=O)Nc1ccc(Oc2ccncc2)cc1 [Compound 61] | 82.7 nM | 1.85 min | most potent MAPK13 inhibition | 620 nM | IL-13-induced MUC5AC production (MUC5AC [3]; [7]): markedly suppressed; increase in complex half-life (MAPK13 [2]; DFG-out compound 61 compared with DFG-in compound 117 (FIG. 6E)): 40 fold; slow-off binding kinetics (MAPK13 [2]): exhibited slow-off binding kinetics

Reference: patent US9187470B2, “Anti-mucus drugs and uses therefor” (Washington University, priority 2012, dated 2015)
